Source: patent US20010047099A1, “4-aminopicolinates and their use as herbicides” (priority 2000, published 2001)
Values belong to the molecule of their own block, whether it stands above or below them.

Columns and labels:
corn (Zea mays) = assay: Postemergence herbicidal activity, selectivity to corn; assay type: in vivo; conditions: Table 4, crop (corn)
Procedure: (§1) Seeds of the desired test plant species were planted in Grace-Sierra MetroMix® 306 planting mixture, which typically has a pH of 6.0 to 6.8 and an organic matter content of about 30 percent, in plastic pots with a surface area of 64 square centimeters. When required to ensure good germination and healthy plants, a fungicide treatment and/or other chemical or physical treatment was applied. The plants were grown for 7-21 days in a greenhouse with an approximate 15 hr photoperiod which was maintained at about 23-29° C. during the day and 22-28° C. during the night. Nutrients and water were added on a regular basis and supplemental lighting was provided with overhead metal halide 1000-Watt lamps as necessary. The plants were employed for testing when they reached the first or second true leaf stage.
A weighed amount, determined by the highest rate to be tested, of each test compound was placed in a 20 mL glass vial and was dissolved in 4 mL of a 97:3 v/v (volume/volume) mixture of acetone and dimethyl sulfoxide (DMSO) to obtain concentrated stock solutions. […] The concentrated stock solutions obtained were diluted with an aqueous mixture containing acetone, water, isopropyl alcohol, DMSO, Atplus 411F crop oil concentrate, and Triton X-155 surfactant in a 48.5:39:10:1.5:1.0:0.02 v/v ratio to obtain spray solutions of known concentration. The solutions containing the highest concentration to be tested were prepared by diluting 2 mL aliquots of the stock solution with 13 mL of the mixture and lower concentrations were prepared by serial dilution of the stock solution. […]
(§2) The treated plants and control plants were placed in a greenhouse as described above and watered by sub-irrigation to prevent wash-off of the test compounds. After 2 weeks the condition of the test plants as compared with that of the untreated plants was determined visually and scored on a scale of 0 to 100 percent where 0 corresponds to no injury and 100 corresponds to complete kill.

[1] = test system: pigweed (Amaranthus retroflexus); assay: Postemergence herbicidal activity; assay type: in vivo; conditions: Table 4
How it was run: (§3)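 Plants are raised from seed under greenhouse conditions until the first or second true leaf appears. They are then sprayed with test solutions at known concentrations, where 1 ppm corresponds to roughly 1 g/Ha. Two weeks later, injury is rated by eye from 0 to 100%.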

[2] = test system: wild buckwheat (Polygonum convolvulus); assay: Postemergence herbicidal activity; assay type: in vivo; conditions: for pest or weed control at 250 ppm / pest or weed control at 125 ppm: Fallopia convolvulus, post-emergence, 336 h, Table 1, visual, after 2 weeks, read-out: Post-emergent % Control POLCO; for pest or weed control at 125 ppm: rate 125 ppm; for Post-emergent Evaluation - % control POLCO: Table 5
How it was run: as §3

[3] = test system: velvetleaf (Abutillon theophrasti); assay: Postemergence herbicidal activity; assay type: in vivo; conditions: Table 4
How it was run: as §3

[4] = test system: cocklebur (Xanthium strumarium); assay: Postemergence herbicidal activity; assay type: in vivo; conditions: for Post-emergent Evaluation - % control XANST: Table 4; for pest or weed control at 250 ppm / pest or weed control at 125 ppm: Xanthium strumarium, post-emergence, 336 h, Table 1, visual, after 2 weeks, read-out: Post-emergent % Control XANST
How it was run: as §3

[5] = test system: chickweed (Stellaria media); assay: Postemergence herbicidal activity; assay type: in vivo; conditions: for pest or weed control at 250 ppm / pest or weed control at 125 ppm: Stellaria media, post-emergence, 336 h, Table 1, visual, after 2 weeks, read-out: Post-emergent % Control STEME; for pest or weed control at 125 ppm: rate 125 ppm; for Post-emergent Evaluation - % control STEME: Table 5
How it was run: as §3

[6] = test system: pigweed (Amaranthus retroflexus); assay: Preemergence herbicidal activity; assay type: in vivo; conditions: Amaranthus retroflexus, 504 h, Table 6 (headed Post-emergent; text: preemergence), after 3 weeks, read-out: % Control AMARE; for pest or weed control at 140 ppm: rate 140 ppm
How it was run: (§4)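 Visual injury score, 0-100 percent (0 = no injury, 100 = complete kill or no germination), taken 3 weeks after treatment relative to untreated plants. Test solutions in water/Tween 155 with acetone/DMSO carrier were sprayed onto the soil of freshly seeded pots. Greenhouse, 15 hr light.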

[7] = test system: velvetleaf (Abutilon theophrasti); assay: Preemergence herbicidal activity; assay type: in vivo; conditions: Abutilon theophrasti, 504 h, Table 6 (headed Post-emergent; text: preemergence), after 3 weeks, read-out: % Control ABUTH; for pest or weed control at 140 ppm: rate 140 ppm
How it was run: as §4

[8] = test system: morningglory (Ipomoea hederacea); assay: Preemergence herbicidal activity; assay type: in vivo; conditions: Ipomoea, 504 h, Table 6 (headed Post-emergent; text: preemergence), after 3 weeks, read-out: % Control IPOHE; for pest or weed control at 140 ppm: rate 140 ppm
How it was run: as §4

[9] = test system: lambsquarters (Chenopodium album); assay: Postemergence herbicidal activity; assay type: in vivo; conditions: Table 5
How it was run: as §3

[10] = test system: wheat (Triticum aestivum); assay: Postemergence herbicidal activity, selectivity to wheat; assay type: in vivo; conditions: Table 5, crop (wheat)
Procedure: as §1
A weighed amount, determined by the highest rate to be tested, of each test compound was placed in a 20 mL glass vial and was dissolved in 4 mL of a 97:3 v/v (volume/volume) mixture of acetone and dimethyl sulfoxide (DMSO) to obtain concentrated stock solutions. […] The concentrated stock solutions obtained were diluted with an aqueous mixture containing acetone, water, isopropyl alcohol, DMSO, Atplus 411F crop oil concentrate, and Triton X-155 surfactant in a 48.5:39:10:1.5:1.0:0.02 v/v ratio to obtain spray solutions of known concentration. The solutions containing the highest concentration to be tested were prepared by diluting 2 mL aliquots of the stock solution with 13 mL of the mixture and lower concentrations were prepared by serial dilution of the stock solution. Approximately 1.5 mL aliquots of each solution of known concentration were sprayed evenly onto each of the test plant pots using a DeVilbiss atomizer driven by compressed air pressure of 2 to 4 psi ([…]) to obtain thorough coverage of each plant. Control plants were sprayed in the same manner with the aqueous mixture. In this test an application rate of 1 ppm results in the application of approximately 1 g/Ha.
as §2

melting point: 110 °C
Compound: CN(C)c1cc(Cl)nc(C(=O)O)c1Cl [Compound 33, 4-N,N-dimethylamino-3,6-dichloropyridine-2-carboxylic acid]
Post-emergent Evaluation - % control ZEAMX (corn (Zea mays); rate 125 ppm): 20%
Post-emergent Evaluation - % control AMARE ([1]; rate 125 ppm): 50%
pest or weed control at 250 ppm ([2]; rate 250 ppm): 100%
Post-emergent Evaluation - % control ABUTH ([3]; rate 125 ppm): 80%
Post-emergent Evaluation - % control XANST ([4]; rate 125 ppm): 100%
pest or weed control at 250 ppm ([4]; rate 250 ppm): 100%
pest or weed control at 250 ppm ([5]; rate 250 ppm): 100%
pest or weed control at 560 ppm ([6]; rate 560 ppm): 100%
pest or weed control at 560 ppm ([7]; rate 560 ppm): 98%
pest or weed control at 560 ppm ([8]; rate 560 ppm): 100%

Compound: COc1c(N)cc(Br)nc1C(=O)O [Compound 41, 4-Amino-6-bromo-3-methoxypyridine-2-carboxylic acid]
Post-emergent Evaluation - % control CHEAL ([9]; rate 250 ppm): 90%
pest or weed control at 125 ppm [2]: 100%
Post-emergent Evaluation - % control POLCO ([2]; rate 250 ppm): 100%
pest or weed control at 125 ppm ([4]; rate 125 ppm): 80%
pest or weed control at 125 ppm [5]: 90%
Post-emergent Evaluation - % control STEME ([5]; rate 250 ppm): 20%
Post-emergent Evaluation - % control TRZAS ([10]; rate 250 ppm): 10%
pest or weed control at 280 ppm ([6]; rate 280 ppm): 40%
pest or weed control at 280 ppm ([7]; rate 280 ppm): 90%
pest or weed control at 280 ppm ([8]; rate 280 ppm): 85%

melting point: 208 °C (dec.)
Compound: Nc1c(F)c(C(=O)O)nc(Cl)c1Cl [Compound 43, 4-Amino-5,6-dichloro-3-fluoropyridine-2-carboxylic acid]
Post-emergent Evaluation - % control ZEAMX (corn (Zea mays); rate 250 ppm): 0%
Post-emergent Evaluation - % control AMARE ([1]; rate 250 ppm): 90%
pest or weed control at 125 ppm [2]: 60%
Post-emergent Evaluation - % control ABUTH ([3]; rate 250 ppm): 70%
Post-emergent Evaluation - % control XANST ([4]; rate 250 ppm): 85%
pest or weed control at 125 ppm ([4]; rate 125 ppm): 90%
pest or weed control at 125 ppm [5]: 85%
pest or weed control at 140 ppm [6]: 30%
pest or weed control at 140 ppm [7]: 80%
pest or weed control at 140 ppm [8]: 70%

melting point: 131 to 133 °C
Compound: Nc1cc(C(F)(F)F)nc(C(=O)O)c1Cl [Compound 46, 4-Amino-3-chloro-6-trifluoromethylpyridine-2-carboxylic acid]
Post-emergent Evaluation - % control CHEAL ([9]; rate 31 ppm): 100%
pest or weed control at 250 ppm ([2]; rate 250 ppm): 100%
Post-emergent Evaluation - % control POLCO ([2]; rate 31 ppm): 100%
pest or weed control at 250 ppm ([4]; rate 250 ppm): 90%
pest or weed control at 250 ppm ([5]; rate 250 ppm): 60%
Post-emergent Evaluation - % control STEME ([5]; rate 31 ppm): 50%
Post-emergent Evaluation - % control TRZAS ([10]; rate 31 ppm): 10%
pest or weed control at 140 ppm [6]: 95%
pest or weed control at 140 ppm [7]: 95%
pest or weed control at 140 ppm [8]: 100%
